# Experimental data reported in patent US20230133958A1, “COMPOUNDS USEFUL IN MODULATING EGFR AND PI3K” (Mekanistic Therapeutics LLC, priority 2021, published 2023).
# What was measured:
# Assay type in all cases: cell-based
# A549/ATCC = assay: NCI COMPARE panel (SRB growth inhibition), A549/ATCC; settings: Homo sapiens, Non-Small Cell Lung Cancer, 48 h
# Procedure: (§1) The human tumor cell lines of the cancer screening panel are grown in RPMI 1640 medium containing 5% fetal bovine serum and 2 mM L-glutamine. For a typical screening experiment, cells are inoculated into 96 well microtiter plates in 100 µL at plating densities ranging from 5,000 to 40,000 cells/well depending on the doubling time of individual cell lines. After cell inoculation, the microtiter plates are incubated at 37° C., 5% CO2, 95% air and 100% relative humidity for 24 h prior to addition of experimental drugs.
# (§2) After 24 h, two plates of each cell line are fixed in situ with TCA, to represent a measurement of the cell population for each cell line at the time of drug addition (Tz). Experimental drugs are solubilized in dimethyl sulfoxide at 400-fold the desired final maximum test concentration and stored frozen prior to use. […]
# (§3) Following drug addition, the plates are incubated for an additional 48 h at 37° C., 5 % CO2, 95% air, and 100% relative humidity. […] Bound stain is subsequently solubilized with 10 mM trizma base, and the absorbance is read on an automated plate reader at a wavelength of 515 nm. […] Using the seven absorbance measurements [time zero, (Tz), control growth, (C), and test growth in the presence of drug at the five concentration levels (Ti)], the percentage growth is calculated at each of the drug concentrations levels. Percentage growth inhibition is calculated as: […]
# CCRF-CEM = assay: NCI COMPARE panel (SRB growth inhibition), CCRF-CEM; settings: Homo sapiens, Leukemia, 48 h
# Procedure: as §1, §2, §3
# SF-295 = assay: NCI COMPARE panel (SRB growth inhibition), SF-295; settings: Homo sapiens; CNS Cancer, SF-295, 48 h
# Procedure: as §1, §2, §3
# 786-0 = assay: NCI COMPARE panel (SRB growth inhibition), 786-0; settings: Homo sapiens; Renal Cancer, 786-0, 48 h
# Procedure: as §1, §2, §3
# SF-268 = assay: NCI COMPARE panel (SRB growth inhibition), SF-268; settings: Homo sapiens; CNS Cancer, SF-268, 48 h
# Procedure: as §1, §2, §3
# OVCAR-8 = assay: NCI COMPARE panel (SRB growth inhibition), OVCAR-8; settings: Homo sapiens; Ovarian Cancer, OVCAR-8, 48 h
# Procedure: as §1, §2, §3
# NCI/ADR-RES = assay: NCI COMPARE panel (SRB growth inhibition), NCI/ADR-RES; settings: Homo sapiens, Ovarian Cancer, 48 h
# Procedure: as §1, §2, §3
# SNB-75 = assay: NCI COMPARE panel (SRB growth inhibition), SNB-75; settings: Homo sapiens; CNS Cancer, SNB-75, 48 h
# Procedure: as §1, §2, §3
# KM12 = assay: NCI COMPARE panel (SRB growth inhibition), KM12; settings: Homo sapiens; Colon Cancer, KM12, 48 h
# Procedure: as §1, §2, §3
# SW-620 = assay: NCI COMPARE panel (SRB growth inhibition), SW-620; settings: Homo sapiens; Colon Cancer, SW-620, 48 h
# Procedure: as §1, §2, §3
# PC-3 = assay: NCI COMPARE panel (SRB growth inhibition), PC-3; settings: Homo sapiens; Prostate Cancer, PC-3, 48 h
# Procedure: as §1, §2, §3
# SK-MEL-2 = assay: NCI COMPARE panel (SRB growth inhibition), SK-MEL-2; settings: Homo sapiens; Melanoma, SK-MEL-2, 48 h
# Procedure: as §1, §2, §3
# HOP-92 = assay: NCI COMPARE panel (SRB growth inhibition), HOP-92; settings: Homo sapiens; Non-Small Cell Lung Cancer, HOP-92, 48 h
# Procedure: as §1, §2, §3
# HS 578T = assay: NCI COMPARE panel (SRB growth inhibition), HS 578T; settings: Homo sapiens, Breast Cancer, 48 h
# Procedure: as §1, §2, §3
# NCI-H226 = assay: NCI COMPARE panel (SRB growth inhibition), NCI-H226; settings: Homo sapiens; Non-Small Cell Lung Cancer, NCI-H226, 48 h
# Procedure: as §1, §2, §3
# K-562 = assay: NCI COMPARE panel (SRB growth inhibition), K-562; settings: Homo sapiens, K562; Leukemia, K-562, 48 h
# Procedure: as §1, §2, §3
# M14 = assay: NCI COMPARE panel (SRB growth inhibition), M14; settings: Homo sapiens; Melanoma, M14, 48 h
# Procedure: as §1, §2, §3
# NCI-H23 = assay: NCI COMPARE panel (SRB growth inhibition), NCI-H23; settings: Homo sapiens; Non-Small Cell Lung Cancer, NCI-H23, 48 h
# Procedure: as §1, §2, §3
# HCC-2998 = assay: NCI COMPARE panel (SRB growth inhibition), HCC-2998; settings: Homo sapiens; Colon Cancer, HCC-2998, 48 h
# Procedure: as §1, §2, §3
# MDA-MB-231/ATCC = assay: NCI COMPARE panel (SRB growth inhibition), MDA-MB-231/ATCC; settings: Homo sapiens, Breast Cancer, 48 h
# Procedure: as §1, §2, §3
# SF-539 = assay: NCI COMPARE panel (SRB growth inhibition), SF-539; settings: Homo sapiens; CNS Cancer, SF-539, 48 h
# Procedure: as §1, §2, §3
# TK-10 = assay: NCI COMPARE panel (SRB growth inhibition), TK-10; settings: Homo sapiens; Renal Cancer, TK-10, 48 h
# Procedure: as §1, §2, §3
# UO-31 = assay: NCI COMPARE panel (SRB growth inhibition), UO-31; settings: Homo sapiens; Renal Cancer, UO-31, 48 h
# Procedure: as §1, §2, §3
# UACC-257 = assay: NCI COMPARE panel (SRB growth inhibition), UACC-257; settings: Homo sapiens; Melanoma, UACC-257, 48 h
# Procedure: as §1, §2, §3
Structure (SMILES),GI50 (A549/ATCC),GI50 (CCRF-CEM),GI50 (SF-295),GI50 (786-0),GI50 (SF-268),GI50 (OVCAR-8),GI50 (NCI/ADR-RES),GI50 (SNB-75),GI50 (KM12),GI50 (SW-620),GI50 (PC-3),GI50 (SK-MEL-2),GI50 (HOP-92),GI50 (HS 578T),GI50 (NCI-H226),GI50 (K-562),GI50 (M14),GI50 (NCI-H23),GI50 (HCC-2998),GI50 (MDA-MB-231/ATCC),other results
"CS(=O)(=O)Nc1cc(-c2ccc3ncnc(Nc4cccc(Cl)c4F)c3c2)cnc1Cl [Compound 6, N-[2-chloro-5-[4-(3-chloro-2-fluoro-anilino)quinazolin-6-yl]-3-pyridyl] methanesulfonamide]",125 to 250 nM,125 to 250 nM,125 to 250 nM,125 to 250 nM,125 to 250 nM,> 250 nM,> 250 nM,≤ 75 nM,> 250 nM,> 250 nM,125 to 250 nM,125 to 250 nM,≤ 75 nM,≤ 75 nM,> 250 nM,> 250 nM,125 to 250 nM,125 to 250 nM,125 to 250 nM,125 to 250 nM,GI50 (SF-539): 125 to 250 nM; GI50 (TK-10): ≤ 75 nM; GI50 (UO-31): ≤ 75 nM; GI50 (UACC-257): 125 to 250 nM
"CS(=O)(=O)Nc1cc(-c2ccc3ncc(C#N)c(Nc4cccc(Cl)c4F)c3c2)cnc1Cl [Compound 10, N-[2-chloro-5-[4-(3-chloro-2-fluoro-anilino)-3-cyano-6-quinolyl]-3-pyridyl]methanesulfonamide]",> 250 nM,≤ 75 nM,125 to 250 nM,> 250 nM,75 to 125 nM,> 250 nM,> 250 nM,≤ 75 nM,> 250 nM,≤ 75 nM,125 to 250 nM,≤ 75 nM,≤ 75 nM,≤ 75 nM,> 250 nM,75 to 125 nM,> 250 nM,125 to 250 nM,> 250 nM,> 250 nM,GI50 (SF-539): 125 to 250 nM; GI50 (TK-10): 75 to 125 nM; GI50 (UO-31): 125 to 250 nM; GI50 (UACC-257): > 250 nM
